Measured values from ChEMBL document CHEMBL1146108, “Discovery of novel and selective tertiary alcohol containing inhibitors of the norepinephrine transporter” (Bioorg Med Chem Lett, 2006).
pKi: −log10 of the molar value. Where “and” joins values, the source holds several entries; their conditions need not be identical. Equal values may be shown once.

Columns and labels:
[1] = molecular target: T1, Sodium-dependent noradrenaline transporter (Homo sapiens, UniProt P23975); assay: Binding affinity to NET
T1 sequence (P23975 whole entry): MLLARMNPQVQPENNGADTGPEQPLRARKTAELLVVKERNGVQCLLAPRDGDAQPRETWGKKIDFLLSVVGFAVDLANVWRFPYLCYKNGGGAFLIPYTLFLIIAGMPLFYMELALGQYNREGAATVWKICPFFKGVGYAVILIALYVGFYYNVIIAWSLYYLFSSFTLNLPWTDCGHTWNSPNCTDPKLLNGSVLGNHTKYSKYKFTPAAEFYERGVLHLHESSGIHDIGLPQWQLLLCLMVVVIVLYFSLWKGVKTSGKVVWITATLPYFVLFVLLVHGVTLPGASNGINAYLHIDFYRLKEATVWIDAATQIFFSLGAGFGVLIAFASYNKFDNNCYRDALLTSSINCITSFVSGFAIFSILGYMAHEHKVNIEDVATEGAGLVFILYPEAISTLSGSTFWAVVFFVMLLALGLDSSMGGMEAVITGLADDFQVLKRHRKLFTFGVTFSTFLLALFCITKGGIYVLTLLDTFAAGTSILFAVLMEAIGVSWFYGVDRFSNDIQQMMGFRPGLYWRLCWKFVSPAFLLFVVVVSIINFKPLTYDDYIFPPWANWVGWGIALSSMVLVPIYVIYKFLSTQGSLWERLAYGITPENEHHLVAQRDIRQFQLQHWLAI

[2] = molecular target: Sodium-dependent serotonin transporter (Homo sapiens) (UniProt P31645); assay: Displacement of [3H]5-HT from SERT at 100 nM
Sodium-dependent serotonin transporter (Homo sapiens), sequence (P31645 whole entry, looked up): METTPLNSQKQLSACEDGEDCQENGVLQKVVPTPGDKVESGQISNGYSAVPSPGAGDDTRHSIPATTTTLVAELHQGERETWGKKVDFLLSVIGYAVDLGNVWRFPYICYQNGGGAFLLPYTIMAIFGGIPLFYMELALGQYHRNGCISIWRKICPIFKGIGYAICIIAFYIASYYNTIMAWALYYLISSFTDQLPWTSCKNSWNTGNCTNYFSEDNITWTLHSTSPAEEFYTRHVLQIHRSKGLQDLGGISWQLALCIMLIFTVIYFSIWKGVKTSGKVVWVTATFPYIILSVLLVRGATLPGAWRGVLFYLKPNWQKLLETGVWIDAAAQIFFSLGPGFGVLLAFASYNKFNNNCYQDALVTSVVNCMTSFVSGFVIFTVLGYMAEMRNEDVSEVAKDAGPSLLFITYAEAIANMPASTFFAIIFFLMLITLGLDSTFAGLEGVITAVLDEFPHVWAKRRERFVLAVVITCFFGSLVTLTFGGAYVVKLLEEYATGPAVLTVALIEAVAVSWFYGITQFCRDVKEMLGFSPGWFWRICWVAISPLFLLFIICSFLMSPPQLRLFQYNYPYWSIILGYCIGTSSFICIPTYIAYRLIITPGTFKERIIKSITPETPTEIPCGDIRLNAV

[3] = molecular target: Sodium-dependent dopamine transporter (Homo sapiens) (UniProt Q01959); assay: Displacement of […] from DAT at 1000 nM
Sodium-dependent dopamine transporter (Homo sapiens), sequence (Q01959 whole entry): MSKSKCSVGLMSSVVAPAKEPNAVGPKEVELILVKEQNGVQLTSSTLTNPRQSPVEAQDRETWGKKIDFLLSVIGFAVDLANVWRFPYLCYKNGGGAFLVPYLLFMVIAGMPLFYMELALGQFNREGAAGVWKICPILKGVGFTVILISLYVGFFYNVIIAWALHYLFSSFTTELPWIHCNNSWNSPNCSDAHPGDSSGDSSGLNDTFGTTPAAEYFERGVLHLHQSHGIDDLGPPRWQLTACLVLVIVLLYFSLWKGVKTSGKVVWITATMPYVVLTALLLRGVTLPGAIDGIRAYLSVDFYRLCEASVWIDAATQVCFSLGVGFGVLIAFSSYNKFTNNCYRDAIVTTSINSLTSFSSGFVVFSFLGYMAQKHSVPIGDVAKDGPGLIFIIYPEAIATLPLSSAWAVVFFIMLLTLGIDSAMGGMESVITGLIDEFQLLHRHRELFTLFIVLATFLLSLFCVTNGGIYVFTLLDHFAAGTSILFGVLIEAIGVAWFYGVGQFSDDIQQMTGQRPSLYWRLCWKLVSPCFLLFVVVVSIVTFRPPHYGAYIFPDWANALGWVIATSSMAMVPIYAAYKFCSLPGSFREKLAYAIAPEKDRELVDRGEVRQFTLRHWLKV

[4] = molecular target: T1, Sodium-dependent noradrenaline transporter; assay: Binding affinity to NET at 100 nM
[5] = tested on: Liver microsomes; assay: Stability in rat liver microsome; assay type: ADME
[6] = species on record: Canis familiaris; assay: Stability in dog liver microsome; assay type: ADME, Canis lupus familiaris
[7] = tested on: Liver microsomes; assay: Stability in human liver microsome; assay type: ADME
[8] = tested on: Rattus norvegicus; assay: Ability to block alpha-MMT-induced depletion of cortical norepinephrine concentration in Sprague-Dawley rat at 3 mg/kg, sc; assay type: functional; conditions: route subcutaneous
[9] = tested on: Rattus norvegicus; assay: Ability to block alpha-MMT-induced depletion of cortical norepinephrine concentration in orally dosed Sprague-Dawley rat; assay type: functional; conditions: po

pKi [1]	inhibition [2]	inhibition [3]	Compound	other results
6.79	–	–	COc1ccccc1C[C@@](O)(c1ccccc1)[C@@H]1CNCCO1 [listing 1 of 3 here]	–
7.92	13%	24.1%	O[C@](Cc1ccccc1Br)(c1ccccc1)[C@@H]1CNCCO1	–
8.28	2.4%	3.8%	CCOc1ccccc1C[C@@](O)(c1ccccc1)[C@@H]1CNCCO1	–
–	5% and 5.5% and 1.4%	4.7% and 3.8% and 3.7%	COc1ccccc1C[C@@](O)(c1ccccc1)[C@@H]1CNCCO1 [listing 2 of 3 here]	–
7.52	4.6%	20.8%	O[C@](Cc1ccccc1Cl)(c1ccccc1)[C@@H]1CNCCO1	–
8.11	2.7%	5.1%	CC(C)Oc1ccccc1C[C@@](O)(c1ccccc1)[C@@H]1CNCCO1	–
–	4.3%	6.2%	COc1ccc(C[C@@](O)(c2ccccc2)[C@@H]2CNCCO2)cc1	inhibition [4]: 25.2%
7.26	14.8%	6.2%	O[C@](Cc1ccccc1SC(F)(F)F)(c1ccccc1)[C@@H]1CNCCO1	–
–	0.3%	4.6%	COc1ccccc1C[C@@](O)(c1ccccc1)[C@@H]1CNCCO1 (single isomer, unassigned; isomer 2) [listing 1 of 2 here]	–
6.81	–	–	COc1ccccc1C[C@@](O)(c1ccccc1)[C@@H]1CNCCO1 (single isomer, unassigned; isomer 2) [listing 2 of 2 here]	–
–	2.8%	4.3%	COc1cccc(C[C@@](O)(c2ccccc2)[C@@H]2CNCCO2)c1	inhibition [4]: 19.8%
8.43	3%	2.9%	O[C@](Cc1ccccc1-c1ccccc1)(c1ccccc1)[C@@H]1CNCCO1 (single isomer, unassigned)	–
7.25	–	–	COc1ccccc1C[C@@](O)(c1ccccc1)[C@@H]1CNCCO1 [listing 3 of 3 here]	–
8.49	–	–	COc1ccccc1C[C@@](O)(c1ccccc1)[C@@H]1CNCCO1.Cl.Cl.Cl	Stability [5]: 0%; Stability [6]: 60%; Stability [7]: 98%; Activity [8]: 70%; ED50 [9]: 18 mg/kg

Compound	pKi [1]	inhibition [2]	inhibition [3]	other results
O[C@](Cc1ccccc1)(c1ccccc1)[C@@H]1CNCCO1	6.83	4.2%	5.5%	–
